According to ChEMBL document CHEMBL1201862, “PubChem BioAssay data set” (2004):
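Exposure lasted 48 hours, with cells grown in 96-well plates and compounds tested at five concentrations. GI50 marks 50% less growth.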 Calls of active or inactive are those of the source. Rule as the data show it: active = GI50 up to about 1.1 µM and inactive = higher.

Columns and labels:
Experiment in all cases: growth of human tumour cells (NCI), 48 h
786-0 = system: 786-0
ACHN = system: ACHN
CAKI-1 = system: CAKI-1
HCT-116 = system: HCT-116
HOP-62 = system: HOP-62
HOP-92 = system: HOP-92
IGROV-1 = system: IGROV-1
MCF7 = system: MCF7
MOLT-4 = system: MOLT-4
NCI-H226 = system: NCI-H226
NCI-H23 = system: NCI-H23
NCI-H460 = system: NCI-H460
NCI-H522 = system: NCI-H522
SF-268 = system: SF-268
SF-295 = system: SF-295
SK-MEL-2 = system: SK-MEL-2
SN12C = system: SN12C
TK-10 = system: TK-10
U-251 = system: U-251
UO-31 = system: UO-31

| Structure (SMILES) | GI50 (786-0) | GI50 (ACHN) | GI50 (CAKI-1) | GI50 (HCT-116) | GI50 (HOP-62) | GI50 (HOP-92) | GI50 (IGROV-1) | GI50 (MCF7) | GI50 (MOLT-4) | GI50 (NCI-H226) | GI50 (NCI-H23) | GI50 (NCI-H460) | GI50 (NCI-H522) | GI50 (SF-268) | GI50 (SF-295) | GI50 (SK-MEL-2) | GI50 (SN12C) | GI50 (TK-10) | GI50 (U-251) | GI50 (UO-31) |
| --- | --- | --- | --- | --- | --- | --- | --- | --- | --- | --- | --- | --- | --- | --- | --- | --- | --- | --- | --- | --- |
| COC(=O)C1=C(O)C(C(=O)OC)C2CC(=O)CC1C2(C)C (stereo not given) | > 100 µM (inactive) | > 100 µM (inactive) | > 100 µM (inactive) | > 100 µM (inactive) | > 100 µM (inactive) | > 100 µM (inactive) | > 100 µM (inactive) | > 100 µM (inactive) | > 100 µM (inactive) | > 100 µM (inactive) | > 100 µM (inactive) | > 100 µM (inactive) | > 100 µM (inactive) | > 100 µM (inactive) | > 100 µM (inactive) | > 100 µM (inactive) | > 100 µM (inactive) | > 100 µM (inactive) | > 100 µM (inactive) | > 100 µM (inactive) |
| CC1=CC(=O)/C(=C/NC(=S)c2ccncc2)C(=O)O1 | > 100 µM (inactive) | > 100 µM (inactive) | > 100 µM (inactive) | > 100 µM (inactive) | > 100 µM (inactive) | > 100 µM (inactive) | 38.7 µM (inactive) | > 100 µM (inactive) | > 100 µM (inactive) | 68.1 µM (inactive) | > 100 µM (inactive) | > 100 µM (inactive) | > 100 µM (inactive) | > 100 µM (inactive) | > 100 µM (inactive) | > 100 µM (inactive) | > 100 µM (inactive) | > 100 µM (inactive) | > 100 µM (inactive) | > 100 µM (inactive) |
| CS(=O)(=O)N1CC(CCl)c2ccc(O)cc21 (stereo not given) | 3.31 µM (inactive) | 3.4 µM (inactive) | 2.42 µM (inactive) | 2.71 µM (inactive) | 3.56 µM (inactive) | 3.11 µM (inactive) | 2.07 µM (inactive) | 1.98 µM (inactive) | 2.09 µM (inactive) | 2.34 µM (inactive) | 2.02 µM (inactive) | 2.9 µM (inactive) | 1.47 µM (inactive) | 0.155 µM (active) | 2.95 µM (inactive) | 2.94 µM (inactive) | 2.91 µM (inactive) | 2.32 µM (inactive) | 2.74 µM (inactive) | 2.32 µM (inactive) |
| CNC(=O)OC(COC)CN1CCN(c2ccccc2C)CC1 (stereo not given) | > 10 µM (inactive) | > 10 µM (inactive) | > 10 µM (inactive) | > 10 µM (inactive) | > 10 µM (inactive) | > 10 µM (inactive) | > 10 µM (inactive) | > 10 µM (inactive) | > 10 µM (inactive) | > 10 µM (inactive) | > 10 µM (inactive) | > 10 µM (inactive) | > 10 µM (inactive) | > 10 µM (inactive) | > 10 µM (inactive) | > 10 µM (inactive) | > 10 µM (inactive) | > 10 µM (inactive) | > 10 µM (inactive) | > 10 µM (inactive) |
| CN(C)CCCNC(=O)c1cn2c(ccc3sc4ccccc4c(=O)c32)n1 | 3.06 µM (inactive) | 11.8 µM (inactive) | 3.28 µM (inactive) | 1.53 µM (inactive) | 12.3 µM (inactive) | 2.15 µM (inactive) | 10.6 µM (inactive) | 3.73 µM (inactive) | 0.738 µM (active) | 17.3 µM (inactive) | 13.4 µM (inactive) | 1.13 µM (inactive) | 12.4 µM (inactive) | 3.82 µM (inactive) | 5.36 µM (inactive) | 21.5 µM (inactive) | 4.56 µM (inactive) | 16.5 µM (inactive) | 1.63 µM (inactive) | 10.8 µM (inactive) |
| COc1cc(C[C@@]2(C)[C@@H]3CCC[C@H](CO)[C@@]3(C)CC[C@@H]2C)c(Cl)c(OC)c1 | 15.7 µM (inactive) | 16 µM (inactive) | 16.2 µM (inactive) | 12.2 µM (inactive) | 17.1 µM (inactive) | 14.5 µM (inactive) | 14.7 µM (inactive) | 15.5 µM (inactive) | 12.1 µM (inactive) | 15.8 µM (inactive) | 19.6 µM (inactive) | 16.8 µM (inactive) | 14.7 µM (inactive) | 14.9 µM (inactive) | 16.3 µM (inactive) | 16.8 µM (inactive) | 15.8 µM (inactive) | 19.5 µM (inactive) | 15.5 µM (inactive) | 16.6 µM (inactive) |
| CCCCN1C(=O)CS/C1=N/Nc1nc2c([nH]1)c(=O)n(C)c(=O)n2C | 17.3 µM (inactive) | > 100 µM (inactive) | > 100 µM (inactive) | 15.2 µM (inactive) | 4.62 µM (inactive) | 43.1 µM (inactive) | > 100 µM (inactive) | 13.7 µM (inactive) | 21.8 µM (inactive) | > 100 µM (inactive) | > 100 µM (inactive) | 13.7 µM (inactive) | 61.7 µM (inactive) | 7.74 µM (inactive) | 7.35 µM (inactive) | 30 µM (inactive) | 33.6 µM (inactive) | > 100 µM (inactive) | 15 µM (inactive) | > 100 µM (inactive) |
| CCC1(C(=O)OC(C)(C)C)OC12C(C)CCCC2C (stereo not given) | 40.6 µM (inactive) | 24.2 µM (inactive) | 33.7 µM (inactive) | 52.8 µM (inactive) | 48.9 µM (inactive) | 34.2 µM (inactive) | > 100 µM (inactive) | 24.3 µM (inactive) | 18.7 µM (inactive) | 45 µM (inactive) | 83.6 µM (inactive) | 31.9 µM (inactive) | 24.5 µM (inactive) | 43.1 µM (inactive) | 38.4 µM (inactive) | 44.8 µM (inactive) | 62.1 µM (inactive) | 41.3 µM (inactive) | 42.9 µM (inactive) | 48.5 µM (inactive) |
| CCOC(=O)C1=CC(C)(C(=O)OCC)Nc2c(nc(OC)[nH]c2=O)N1 (stereo not given) | > 10 µM (inactive) | > 10 µM (inactive) | > 10 µM (inactive) | > 10 µM (inactive) | > 10 µM (inactive) | > 10 µM (inactive) | > 10 µM (inactive) | > 10 µM (inactive) | > 10 µM (inactive) | > 10 µM (inactive) | > 10 µM (inactive) | > 10 µM (inactive) | > 10 µM (inactive) | > 10 µM (inactive) | > 10 µM (inactive) | > 10 µM (inactive) | > 10 µM (inactive) | > 10 µM (inactive) | > 10 µM (inactive) | > 10 µM (inactive) |
| CC(C)C[P+](c1ccccc1)(c1ccccc1)c1ccccc1 | 41.5 µM (inactive) | 20.2 µM (inactive) | 10.5 µM (inactive) | 4.3 µM (inactive) | 13.7 µM (inactive) | 3.32 µM (inactive) | 13.3 µM (inactive) | 3.31 µM (inactive) | 3.57 µM (inactive) | 8.79 µM (inactive) | 7.4 µM (inactive) | 5.89 µM (inactive) | 3.97 µM (inactive) | 10.3 µM (inactive) | 13.2 µM (inactive) | 4.36 µM (inactive) | 12.3 µM (inactive) | 7.08 µM (inactive) | 3.12 µM (inactive) | 45.5 µM (inactive) |
